Here are results for 39 substances from patent publication US6248586A, “Antisense modulation of PKA catalytic subunit C-alpha expression” (Isis Pharmaceuticals, Inc., priority 1999, dated 2001).

The series deals with human PKA catalytic subunit C-alpha mRNA. The experiment in a line: Inhibition of PKA catalytic subunit C-alpha mRNA levels in oligonucleotide-treated cells, quantitative real-time PCR. Type of series: cell-based. Further details: concentration or dose not given beside the values. The following applies: Table 2, chimeric phosphorothioate 2'-MOE gapmers, averaged from two experiments. On the procedure: when cells reached 80% confluency, they were treated with oligonucleotide. For cells grown in 96-well plates, wells were washed once with 200 μL. OPTI-MEM™-1 reduced-serum medium (Gibco BRL) and then treated with 130 μL of OPTI-MEM™-1 containing 3.75 μg/mL LIPOFECTIN™ (Gibco BRL) and the desired concentration of oligonucleotide. After 4-7 hours of treatment, the medium was replaced with fresh medium. Cells were harvested 16-24 hours after oligonucleotide treatment.
Poly(A)+ mRNA was isolated according to Miura et al., Clin. Chem., 1996, 42, 1758-1764. Other methods for poly(A)+ mRNA isolation are taught in, for example, Ausubel, F. M. et al., Current Protocols in Molecular Biology, Volume 1, pp. 4.5.1-4.5.3, John Wiley & Sons, Inc., 1993. Briefly, for cells grown on 96-well plates, growth medium was removed from the cells and each well was washed with 200 μL cold PBS. 60 μL lysis buffer (10 mM Tris-HCl, pH 7.6, 1 mM EDTA, 0.5 M NaCl, 0.5% NP-40, 20 mM vanadyl-ribonucleoside complex) was added to each well, the plate was gently agitated and then incubated at room temperature for five minutes. 55 μL of lysate was transferred to Oligo d(T) coated 96-well plates (AGCT Inc., Irvine Calif.). Plates were incubated for 60 minutes at room temperature, washed 3 times with 200 μL of wash buffer (10 mM Tris-HCl pH 7.6, 1 mM EDTA, 0.3 M NaCl). After the final wash, the plate was blotted on paper towels to remove excess wash buffer and then air-dried for 5 minutes. 60 μL of elution buffer (5 mM Tris-HCl pH 7.6), preheated to 70° C. was added to each well, the plate was incubated on a 90° C. hot plate for 5 minutes, and the eluate was then transferred to a fresh 96-well plate.
Quantitat:ion of PKA catalytic subunit C-alpha mRNA levels was determined by real-time quantitative PCR using the ABI PRISM™ […] Sequence Detection System (PE-Applied Biosystems, Foster City, Calif.) according to manufacturer's instructions. This is a closed-tube, non-gel-based, fluorescence detection system which allows high-throughput quantitation of polymerase chain reaction (PCR) products in real-time. As opposed to standard PCR, in which amplification products are quantitated after the PCR is completed, products in real-time quantitative PCR are quantitated as they accumulate. This is accomplished by including in the PCR reaction an oligonucleotide probe that anneals specifically between the forward and reverse PCR primers, and contains two fluorescent dyes. A reporter dye (e.g., JOE, FAM, or VIC, obtained from either Operon Technologies Inc., Alameda, Calif. or PE-Applied Biosystems, Foster City, Calif.) is attached to the 5' end of the probe and a quencher dye (e.g., TAMRA, obtained from either Operon Technologies Inc., Alameda, Calif. or PE-Applied Biosystems, Foster City, Calif.) is attached to the 3' end of the probe. When the probe and dyes are intact, reporter dye emission is quenched by the proximity of the 3' quencher dye. During amplification, annealing of the probe to the target sequence creates a substrate that can be cleaved by the 5'-exonuclease activity of Taq polymerase. […] With each cycle, additional reporter dye molecules are cleaved from their respective probes, and the fluorescence intensity is monitored at regular intervals by laser optics built into the ABI PRISM™ 7700 Sequence Detection System. In each assay, a series of parallel reactions containing serial dilutions of mRNA from untreated control samples generates a standard curve that is used to quantitate the percent inhibition after antisense oligonucleotide treatment of test samples.
PCR reagents were obtained from PE-Applied Biosystems, Foster City, Calif. […]
A general note: Real-time PCR tracks product formation cycle by cycle.
On to “102599 (antisense GCGGCGGGTGCTGGCTGCGG; chemistry not given here) [compound 102599]”, for which the “% Inhibition of PKA catalytic subunit C-alpha mRNA levels” value (“% Inhibition” below) is reported as 77%. On to “102604 (antisense TCGCGGCGGCGGCGGCCGGG; chemistry not given here) [compound 102604]”, for which the “% Inhibition” value was found to be 70%. Turning to “102609 (antisense CATCGCGGCGGCGGCGGCCG; chemistry not given here) [compound 102609]”, the “% Inhibition” value is given as 66%.

On to “102614 (antisense CCCATCGCGGCGGCGGCGGC; chemistry not given here) [compound 102614]”, for which the “% Inhibition” value was 77%. Regarding “102619 (antisense TGCCCATCGCGGCGGCGGCG; chemistry not given here) [compound 102619]”, the “% Inhibition” value was 70%.

On to “102624 (antisense GTTGCCCATCGCGGCGGCGG; chemistry not given here) [compound 102624]”, for which the “% Inhibition” value is listed as 81%.

Turning to “102629 (antisense GCGTTGCCCATCGCGGCGGC; chemistry not given here) [compound 102629]”, the “% Inhibition” value stood at 79%. The result for “102633 (antisense CGGCGTTGCCCATCGCGGCG; chemistry not given here) [compound 102633]” reads 81%; that for “102636 (antisense GGCGGCGTTGCCCATCGCGG; chemistry not given here) [compound 102636]”, 41%; that for “102640 (antisense GCGGCGGCGTTGCCCATCGC; chemistry not given here) [compound 102640]”, 87%. On to “102645 (antisense CGGCGGCGGCGTTGCCCATC; chemistry not given here) [compound 102645]”, for which the “% Inhibition” value is listed as 84%. In the case of “102649 (antisense GGCGGCGGCGGCGTTGCCCA; chemistry not given here) [compound 102649]”, the “% Inhibition” value is reported as 85%. For “102653 (antisense ATTCTTTCACGCTCTCCTGC; chemistry not given here) [compound 102653]”, the “% Inhibition” value is given as 55%. Regarding “102657 (antisense CAAACTGATCCAAGTGGGCT; chemistry not given here) [compound 102657]”, the “% Inhibition” value worked out at 73%. For the substance “102660 (antisense CCAGCATCACCCGCCCGAAG; chemistry not given here) [compound 102660]”, the “% Inhibition” value stood at 82%. The result for “102664 (antisense CTTCTGTTTGTCGAGGATCT; chemistry not given here) [compound 102664]” reads 76%; that for “102668 (antisense GCTTGCAGGATGCGCTTTTC; chemistry not given here) [compound 102668]”, 76%. The result for “102672 (antisense GTTGTCCTTGAAGGAGAACT; chemistry not given here) [compound 102672]” reads 28%; that for “102676 (antisense GAACATCTCCCCGCCGGGCA; chemistry not given here) [compound 102676]”, 92%.

For “102680 (antisense TAGATGAGATCCAGCGAGTG; chemistry not given here) [compound 102680]”, the “% Inhibition” value was determined as 33%. With “102684 (antisense GCGGCCCTTCACGCGCTTGG; chemistry not given here) [compound 102684]”, the “% Inhibition” value was 63%. With “102688 (antisense TCTGCGAAGAAGGGCGGGTA; chemistry not given here) [compound 102688]”, the “% Inhibition” value is given as 52%. The result for “102692 (antisense TCCTTCAAGTCAGAGCTGAA; chemistry not given here) [compound 102692]” reads 67%; that for “102696 (antisense AAACCACTTGTGGTTCTTGA; chemistry not given here) [compound 102696]”, 71%; that for “102700 (antisense CTTCCTCATAGTCGTCAAAG; chemistry not given here) [compound 102700]”, 44%. The result for “102703 (antisense GGCATGCCCCTAAAACTCAG; chemistry not given here) [compound 102703]” reads 26%. The result for “102707 (antisense GGAGCAGCTGGTGTTTCTGT; chemistry not given here) [compound 102707]” reads 73%; that for “102711 (antisense TTGGCGCTTCGTTCATTTGC; chemistry not given here) [compound 102711]”, 60%. For “102716 (antisense AAGCAACCCACTGAACATGT; chemistry not given here) [compound 102716]”, the “% Inhibition” value was 63%. The result for “102720 (antisense GCTTCTCTTTAAAATGGATT; chemistry not given here) [compound 102720]” reads 56%; that for “102724 (antisense ACCCTCGCAGGATTGGCAGA; chemistry not given here) [compound 102724]”, 55%; that for “102727 (antisense CGCTGCTGGGAGGAAAGACT; chemistry not given here) [compound 102727]”, 60%. With “102731 (antisense TGCAGGGATGCCCTCCCCAC; chemistry not given here) [compound 102731]”, the “% Inhibition” value is recorded as 54%. Consider “102736 (antisense CCTTGAACCCCGGGCCGTGG; chemistry not given here) [compound 102736]”, for which the “% Inhibition” value turned out to be 65%. For the substance “102738 (antisense CAGGCAGCCCCTCCCCAGCA; chemistry not given here) [compound 102738]”, the “% Inhibition” value worked out at 31%. The result for “102741 (antisense AGCACAAATGAGAAAGTGGG; chemistry not given here) [compound 102741]” reads 53%; that for “102744 (antisense TGGCTCCCCAGCGGCTCCCC; chemistry not given here) [compound 102744]”, 77%. For “102747 (antisense CACACAGGTTGAATCGCCCC; chemistry not given here) [compound 102747]”, the “% Inhibition” value is recorded as 81%. As for “102750 (antisense TAGTTTTCAAATATGTTTAC; chemistry not given here) [compound 102750]”, the “% Inhibition” value turned out to be 66%.
